Results: US5039665A, “Use of fructose-1,6-diphosphate for treating myocardial infarction” (priority 1990, dated 1991)

Columns and labels:
erythrocytes = test: incubation of erythrocytes: ATP and 2-3 DPG content; format: cell-based; details: equimolar, same conditions
Description: (§1) To allow for a broader and more complete interpretation of the results, a small paragraph will be devoted to the ability of FDP to cross the cellular membranes.

heart preparation = details: infusion of Locke's solution plus sugar; cited from earlier work
rabbit ileum = test: force of contraction of isolated rabbit ileum; details: added to perfusate
Description: as §1

SMILES: O=C(CO)[C@@H](O)[C@H](O)[C@H](O)CO [fructose]
- ATP content in the erythrocytes (erythrocytes): failed to increase the ATP content
- amplitude and frequency of heart beats, lactic acid, pH and potassium during recovery (heart preparation): no significant difference
- force of contraction (rabbit ileum): fail to produce the same effect

SMILES: O=P(O)(O)O [inorganic phosphate]
- ATP content in the erythrocytes (erythrocytes): failed to increase the ATP content
- force of contraction (rabbit ileum): fail to produce the same effect

SMILES: O=C(CO)[C@@H](O)[C@H](O)[C@H](O)COP(=O)(O)O [fructose-6-phosphate]
- ATP content in the erythrocytes (erythrocytes): failed to increase the ATP content
- force of contraction (rabbit ileum): fail to produce the same effect

SMILES: O=C[C@H](O)[C@@H](O)[C@H](O)[C@H](O)COP(=O)(O)O [glucose-6-phosphate]
- ATP content in the erythrocytes (erythrocytes): failed to increase the ATP content
- force of contraction (rabbit ileum): fail to produce the same effect

SMILES: OC[C@H]1O[C@@](CO)(O[C@H]2O[C@H](CO)[C@@H](O)[C@H](O)[C@H]2O)[C@@H](O)[C@@H]1O [sucrose]
- amplitude and frequency of heart beats, lactic acid, pH and potassium during recovery (heart preparation): no significant difference
